US7105470B1, “Herbicidal compositions for tolerant or resistant soybean crops” (Hoechst Schering AgrEvo GmbH, priority 1998, dated 2006)
Where a name gives a salt, the structure may show the parent alone.

How the values were obtained:
Format in all cases: in vivo
Digitalis abscendens = test: Field trial with soybeans, herbicidal action; settings: application middle-end of stocking, scoring 3 weeks after application
Protocol: (§1) Transgenic soybean plants with a resistance to one or more herbicides (A) together with typical weed plants were grown in the open on 2×5 m plots under natural field conditions; alternatively, weed infestation occurred naturally when the soybean plants were grown.
(§2) […] The damage to, and the development of, all aerial parts of the plants was recorded. Scoring was done on the basis of a percentage sale (100% action all plants destroyed; 50% action=50% of the plants and green parts of the plants destroyed; 0% action=no recognizable effect=like control plot. The mean of the score values of in each case 4 plots was calculated.

Equisetum arvense = test: Field trial with soybeans, herbicidal action; settings: 4–6 leaf stage, scoring 3 weeks after application
Protocol: as §1, §2

Portulaca oleracea = test: Field trial with soybeans, herbicidal action; settings: 8–10 leaf stage, scoring 32 days after application
Protocol: as §1, §2

Abutilon theophrasti = test: Field trial with soybeans, herbicidal action; settings: 4-leaf stage, scoring 42 days after application
Protocol: as §1
(§3) 2, 4, 6 and 8 weeks after the application, the herbicidal activity of the active substances or active substance mixtures was scored visually with reference to the treated plots in comparison to untreated control plots. The damage to, and the development of, all aerial parts of the plants was recorded. Scoring was done on the basis of a percentage sale (100% action all plants destroyed; 50% action=50% of the plants and green parts of the plants destroyed; 0% action=no recognizable effect=like control plot. The mean of the score values of in each case 4 plots was calculated.

Eleusine indica = test: Field trial with soybeans, herbicidal action; settings: 3-leaf stage, scoring 42 days after application
Protocol: as §1, §3

Pharbitis purpureum = test: Field trial with soybeans, herbicidal action; settings: 3-leaf stage, scoring 42 days after application
Protocol: as §1, §3

Sorghum sudaneus = test: Field trial with soybeans, herbicidal action; settings: 4-leaf stage, scoring 28 days after application
Protocol: as §1, §3

Xanthium orientalis = test: Field trial with soybeans, herbicidal action; settings: 5-leaf stage, scoring 28 days after application
Protocol: as §1, §3

[1] = system: Soja LL (glufosinate-tolerant soybean culture); test: Field trial with soybeans, tolerance by crop plants
Protocol: as §1, §3

Sida rombifolia = test: Field trial with soybeans, herbicidal action; settings: 4-leaf stage, scoring 43 days after application
[2] = Table 8, 50 g of a.s./ha, 4-leaf stage, scoring 43 days after application

CP(=O)(O)CCC(N)C(=O)O (centres unmarked) [(A1.2), glufosinate-monoammonium salt]
Herbicidal action (%) against Digitalis abscendens (Digitalis abscendens; 1200 g of a.s./ha): 36%
Herbicidal action (%) against Equisetum arvense (Equisetum arvense; 400 g of a.s./ha): 70%
Herbicidal action (%) against Portulaca oleracea (Portulaca oleracea; 250 g of a.s./ha): 20%
Herbicidal action (%) against Portulaca oleracea (Portulaca oleracea; 500 g of a.s./ha): 65%
Herbicidal action (%) against Abutilon theophrasti (Abutilon theophrasti; 330 g of a.s./ha): 45%
Herbicidal action (%) against Abutilon theophrasti (Abutilon theophrasti; 500 g of a.s./ha): 95%
Herbicidal action (%) against Eleusine indica (Eleusine indica; 200 g of a.s./ha): 40%
Herbicidal action (%) against Eleusine indica (Eleusine indica; 500 g of a.s./ha): 80%
Herbicidal action (%) against Pharbitis purpureum (Pharbitis purpureum; 200 g of a.s./ha): 35%
Herbicidal action (%) against Pharbitis purpureum (Pharbitis purpureum; 400 g of a.s./ha): 72%
Herbicidal action (%) against Sorghum sudaneus (Sorghum sudaneus; 300 g of a.s./ha): 15%
Herbicidal action (%) against Sorghum sudaneus (Sorghum sudaneus; 500 g of a.s./ha): 65%
Herbicidal action (%) against Xanthium orientalis (Xanthium orientalis; 300 g of a.s./ha): 96%
Herbicidal action (%) against Xanthium orientalis (Xanthium orientalis; 500 g of a.s./ha): 98%
Herbicidal action (%) against Soja LL ([1]; Table 5, 250 g of a.s./ha, 8–10 leaf stage, scoring 32 days after application): 0%
Herbicidal action (%) against Soja LL ([1]; Table 5, 500 g of a.s./ha, 8–10 leaf stage, scoring 32 days after application): 0%
Herbicidal action (%) against Soja LL ([1]; Table 6, 200 g of a.s./ha, 3-leaf stage, scoring 42 days after application): 0%
Herbicidal action (%) against Soja LL ([1]; Table 6, 500 g of a.s./ha, 3-leaf stage, scoring 42 days after application): 0%
Herbicidal action (%) against Soja LL ([1]; Table 7, 200 g of a.s./ha, 3-leaf stage, scoring 42 days after application): 0%
Herbicidal action (%) against Soja LL ([1]; Table 7, 400 g of a.s./ha, 3-leaf stage, scoring 42 days after application): 0%
Herbicidal action (%) against Soja LL ([1]; Table 8, 150 g of a.s./ha, 4-leaf stage, scoring 43 days after application): 0%
Herbicidal action (%) against Soja LL ([1]; Table 8, 300 g of a.s./ha, 4-leaf stage, scoring 43 days after application): 0%
Herbicidal action (%) against Sida rombifolia (Sida rombifolia; 150 g of a.s./ha): 25%
Herbicidal action (%) against Sida rombifolia (Sida rombifolia; 300 g of a.s./ha): 65%

CCc1cnc(C2=NC(C)(C(C)C)C(=O)N2)c(C(=O)O)c1 (centres unmarked) [(A3.2), imazethapyr]
Herbicidal action (%) against Eleusine indica (Eleusine indica; 50 g of a.s./ha): 27%
Herbicidal action (%) against Soja LL ([1]; in vivo): 0%

COCc1cnc(C2=NC(C)(C(C)C)C(=O)N2)c(C(=O)O)c1 (centres unmarked) [(A3.5), imazamox]
Herbicidal action (%) against Pharbitis purpureum (Pharbitis purpureum; 30 g of a.s./ha): 40%
Herbicidal action (%) against Soja LL ([1]; Table 7, 30 g of a.s./ha, 3-leaf stage, scoring 42 days after application): 0%

CCCN(CCC)c1c([N+](=O)[O-])cc(C(F)(F)F)cc1[N+](=O)[O-] [(B1.1), trifluralin]
Herbicidal action (%) against Xanthium orientalis (Xanthium orientalis; 960 g of a.s./ha): 0%

CCc1cccc(C)c1N(C(=O)CCl)C(C)COC (centres unmarked) [(B1.5), metolachlor]
Herbicidal action (%) against Portulaca oleracea (Portulaca oleracea; 2240 g of a.s./ha): 30%
Herbicidal action (%) against Soja LL ([1]; Table 5, 2240 g of a.s./ha, 8–10 leaf stage, scoring 32 days after application): 0%

Cc1ccn2nc(S(=O)(=O)Nc3c(F)cccc3F)nc2n1 [(B1.6), flumetsulam]
Herbicidal action (%) against Abutilon theophrasti (Abutilon theophrasti; 35 g of a.s./ha): 52%

COCC(C)N(C(=O)CCl)c1c(C)csc1C (centres unmarked) [(B1.7), dimethenamid]
Herbicidal action (%) against Abutilon theophrasti (Abutilon theophrasti; 1500 g of a.s./ha): 30%

CCc1cccc(CC)c1N(COC)C(=O)CCl [(B1.8), alachlor]
Herbicidal action (%) against Digitalis abscendens (Digitalis abscendens; 2580 g of a.s./ha): 48%

CON(C)C(=O)Nc1ccc(Cl)c(Cl)c1 [(B1.9), linuron]
Herbicidal action (%) against Sorghum sudaneus (Sorghum sudaneus; 750 g of a.s./ha): 15%

C#CCN1C(=O)COc2cc(F)c(N3C(=O)C4=C(CCCC4)C3=O)cc21 [(B1.15), flumioxazin]
Herbicidal action (%) against Portulaca oleracea (Portulaca oleracea; 100 g of a.s./ha): 65%
Herbicidal action (%) against Pharbitis purpureum (Pharbitis purpureum; 12.5 g of a.s./ha): 30%
Herbicidal action (%) against Soja LL ([1]; Table 5, 100 g of a.s./ha, 8–10 leaf stage, scoring 32 days after application): 0%
Herbicidal action (%) against Soja LL ([1]; Table 7, 12.5 g of a.s./ha, 3-leaf stage, scoring 42 days after application): 0%

CC(C)N1C(=O)c2ccccc2NS1(=O)=O [(B2.2), bentazone]
Herbicidal action (%) against Pharbitis purpureum (Pharbitis purpureum; 480 g of a.s./ha): 35%
Herbicidal action (%) against Soja LL ([1]; Table 7, 480 g of a.s./ha, 3-leaf stage, scoring 42 days after application): 0%

COC(=O)c1sccc1S(=O)(=O)NC(=O)Nc1nc(C)nc(OC)n1 [(B2.3), thifensulfuron-methyl]
Herbicidal action (%) against Portulaca oleracea (Portulaca oleracea; 5 g of a.s./ha): 45%
Herbicidal action (%) against Sorghum sudaneus (Sorghum sudaneus; 15 g of a.s./ha): 13%
Herbicidal action (%) against Soja LL ([1]; in vivo): 3%

CCOC(=O)C(C)OC(=O)c1cc(Oc2ccc(C(F)(F)F)cc2Cl)ccc1[N+](=O)[O-] (centres unmarked) [(B2.5), lactofen]
Herbicidal action (%) against Equisetum arvense (Equisetum arvense; 150 g of a.s./ha): 0%
Herbicidal action (%) against Equisetum arvense (Equisetum arvense; 300 g of a.s./ha): 0%
Herbicidal action (%) against Abutilon theophrasti (Abutilon theophrasti; 2240 g of a.s./ha): 20%

CCCCCOC(=O)COc1cc(N2C(=O)C3=C(CCCC3)C2=O)c(F)cc1Cl [(B2.7), flumiclorac-pentyl]
Herbicidal action (%) against Soja LL [1, 2]: 0%
Herbicidal action (%) against Sida rombifolia (Sida rombifolia; 50 g of a.s./ha): 40%

O=C(O)c1cc(Oc2ccc(C(F)(F)F)cc2Cl)ccc1[N+](=O)[O-] [(B2.8), acifluorfen]
Herbicidal action (%) against Sorghum sudaneus (Sorghum sudaneus; 360 g of a.s./ha): 15%

COc1cc(Cl)nc(NC(=O)NS(=O)(=O)c2ccccc2C(=O)O)n1 [(B2.11), chlorimuron]
Herbicidal action (%) against Eleusine indica (Eleusine indica; 12.5 g of a.s./ha): 5%
Herbicidal action (%) against Soja LL ([1]; Table 6, 12.5 g of a.s./ha, 3-leaf stage, scoring 42 days after application): 0%

CCOc1nc(F)cc2nc(S(=O)(=O)Nc3c(Cl)cccc3C(=O)OC)nn12 [(B2.12), cloransulam-methyl]
Herbicidal action (%) against Portulaca oleracea (Portulaca oleracea; 18 g of a.s./ha): 73%
Herbicidal action (%) against Pharbitis purpureum (Pharbitis purpureum; 40 g of a.s./ha): 45%
Herbicidal action (%) against Soja LL ([1]; Table 5, 18 g of a.s./ha, 8–10 leaf stage, scoring 32 days after application): 2%
Herbicidal action (%) against Soja LL ([1]; Table 7, 40 g of a.s./ha, 3-leaf stage, scoring 42 days after application): 0%

Cc1cc(C)nc(NC(=O)NS(=O)(=O)c2ccccc2C(=O)OC2COC2)n1 [(B2.15), oxasulfuron]
Herbicidal action (%) against Soja LL [1, 2]: 0%
Herbicidal action (%) against Sida rombifolia (Sida rombifolia; 50 g of a.s./ha): 60%

CCOC(=O)[C@@H](C)Oc1ccc(Oc2nc3ccc(Cl)cc3o2)cc1 [(B4.2), fenoxaprop-P-ethyl]
Herbicidal action (%) against Eleusine indica (Eleusine indica; 25 g of a.s./ha): 30%
Herbicidal action (%) against Eleusine indica (Eleusine indica; 50 g of a.s./ha): 70%
Herbicidal action (%) against Soja LL ([1]; Table 6, 25 g of a.s./ha, 3-leaf stage, scoring 42 days after application): 0%
Herbicidal action (%) against Soja LL ([1]; Table 6, 50 g of a.s./ha, 3-leaf stage, scoring 42 days after application): 0%
